Experiments:
[1] = molecular target: T1, Metabotropic glutamate receptor 1 (Homo sapiens, UniProt Q13255); experiment: Positive allosteric modulation of human mGlu1 receptor assessed as increase in glutamate-induced calcium mobilization; format: functional
[2] = molecular target: T1, Metabotropic glutamate receptor 1; experiment: Positive allosteric modulation of human mGlu1 receptor assessed as increase in glutamate-induced calcium mobilization relative to glutamate; format: functional
Target sequence in this assay (Q13255 19-1194 limits assumed): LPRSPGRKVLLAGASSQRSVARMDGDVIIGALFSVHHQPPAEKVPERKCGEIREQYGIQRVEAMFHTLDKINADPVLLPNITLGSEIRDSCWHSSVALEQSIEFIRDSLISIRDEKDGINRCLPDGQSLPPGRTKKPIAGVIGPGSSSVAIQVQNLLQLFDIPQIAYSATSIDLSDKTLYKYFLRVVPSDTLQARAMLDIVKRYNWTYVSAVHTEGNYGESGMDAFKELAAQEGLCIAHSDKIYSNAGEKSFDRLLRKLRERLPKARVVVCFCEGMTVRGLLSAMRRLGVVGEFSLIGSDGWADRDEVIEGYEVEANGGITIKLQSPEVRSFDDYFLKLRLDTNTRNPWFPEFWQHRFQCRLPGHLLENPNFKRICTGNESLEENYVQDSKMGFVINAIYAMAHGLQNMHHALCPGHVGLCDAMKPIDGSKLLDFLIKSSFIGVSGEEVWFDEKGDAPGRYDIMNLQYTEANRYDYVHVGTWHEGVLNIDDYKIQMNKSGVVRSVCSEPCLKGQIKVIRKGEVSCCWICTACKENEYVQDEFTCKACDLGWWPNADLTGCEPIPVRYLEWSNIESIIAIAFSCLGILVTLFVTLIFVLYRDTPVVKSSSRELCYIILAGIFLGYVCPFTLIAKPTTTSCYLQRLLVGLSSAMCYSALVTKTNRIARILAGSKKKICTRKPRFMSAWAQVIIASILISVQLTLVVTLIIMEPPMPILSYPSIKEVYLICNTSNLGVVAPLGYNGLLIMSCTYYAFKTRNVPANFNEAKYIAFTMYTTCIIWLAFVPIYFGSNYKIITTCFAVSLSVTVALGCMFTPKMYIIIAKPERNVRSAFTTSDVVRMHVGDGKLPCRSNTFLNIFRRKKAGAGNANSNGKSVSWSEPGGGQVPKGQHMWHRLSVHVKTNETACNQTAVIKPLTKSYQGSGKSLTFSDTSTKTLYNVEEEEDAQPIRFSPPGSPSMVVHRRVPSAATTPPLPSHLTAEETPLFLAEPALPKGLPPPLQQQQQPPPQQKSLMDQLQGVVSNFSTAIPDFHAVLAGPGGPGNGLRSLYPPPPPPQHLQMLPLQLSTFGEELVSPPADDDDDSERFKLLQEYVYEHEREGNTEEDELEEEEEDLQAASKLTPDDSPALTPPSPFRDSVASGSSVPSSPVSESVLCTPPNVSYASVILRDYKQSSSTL

[3] = molecular target: T1, Metabotropic glutamate receptor 1; experiment: Positive allosteric modulation of human mGlu1 receptor expressed in wild type T-Rex 293 cells assessed as increase in glutamate-induced calcium mobilization incubated for 2 mins before glutamate stimulation for 2.2 mins; format: functional, cell-based
[4] = molecular target: T1, Metabotropic glutamate receptor 1; experiment: Positive allosteric modulation of human mGlu1 receptor expressed in wild type T-Rex 293 cells assessed as increase in glutamate-induced calcium mobilization incubated for 2 mins before glutamate stimulation for 2.2 mins relative to glutamate; format: functional, cell-based
Target sequence in this assay (Q13255 19-1194 limits assumed): as above

[5] = molecular target: Metabotropic glutamate receptor 1 (Rattus norvegicus, UniProt P23385); experiment: Positive allosteric modulation of rat mGlu1 receptor assessed as increase in glutamate-induced calcium mobilization; format: functional
[6] = molecular target: Metabotropic glutamate receptor 1 (Rattus norvegicus) (UniProt P23385); experiment: Positive allosteric modulation of rat mGlu1 receptor assessed as increase in glutamate-induced calcium mobilization relative to glutamate; format: functional
Brain [7] = experiment: Fraction unbound in rat brain homogenate; format: ADME, tissue-based
Cytochrome P450 2D6 = Cytochrome P450 2D6 (Homo sapiens, UniProt P10635); experiment: Inhibition of CYP2D6 (unknown origin); format: ADME
Cytochrome P450 3A4 = Cytochrome P450 3A4 (Homo sapiens, UniProt P08684); experiment: Inhibition of CYP3A4 (unknown origin); format: ADME
Plasma [8] = experiment: Plasma concentration in rat at 0.25 mg/kg, iv measured at the last time point; format: ADME, organism-based; conditions: in vivo
Brain [9] = experiment: Drug uptake in rat brain at 0.25 mg/kg, iv measured at the last time point; format: ADME, organism-based; conditions: in vivo
[10] = Ratio of drug level in brain to plasma in rat at 0.25 mg/kg, iv; format: ADME, organism-based
[11] = molecular target: T1, Metabotropic glutamate receptor 1; experiment: Positive allosteric modulation of human mGlu1 receptor assessed as glutamate efficacy at 10 uM (reference value: 95.2 +/- 3.5 %)
Target sequence in this assay (Q13255 19-1194 limits assumed): as above

[12] = molecular target: T1, Metabotropic glutamate receptor 1; experiment: Positive allosteric modulation of human mGlu1 receptor assessed as potentiation of glutamate-induced effect at 10 uM relative to control
Target sequence in this assay (Q13255 19-1194 limits assumed): as above

[13] = Intrinsic clearance in human liver microsomes; format: ADME; conditions: read-out: CLH
[14] = Fraction unbound in human plasma; format: ADME, cell-free
Plasma [15] = experiment: Fraction unbound in rat plasma; format: ADME, cell-free
Cytochrome P450 1A2 = molecular target: T2, Cytochrome P450 1A2 (Homo sapiens, UniProt P05177); experiment: Inhibition of CYP1A2 (unknown origin); format: ADME
T2 sequence (P05177 whole entry): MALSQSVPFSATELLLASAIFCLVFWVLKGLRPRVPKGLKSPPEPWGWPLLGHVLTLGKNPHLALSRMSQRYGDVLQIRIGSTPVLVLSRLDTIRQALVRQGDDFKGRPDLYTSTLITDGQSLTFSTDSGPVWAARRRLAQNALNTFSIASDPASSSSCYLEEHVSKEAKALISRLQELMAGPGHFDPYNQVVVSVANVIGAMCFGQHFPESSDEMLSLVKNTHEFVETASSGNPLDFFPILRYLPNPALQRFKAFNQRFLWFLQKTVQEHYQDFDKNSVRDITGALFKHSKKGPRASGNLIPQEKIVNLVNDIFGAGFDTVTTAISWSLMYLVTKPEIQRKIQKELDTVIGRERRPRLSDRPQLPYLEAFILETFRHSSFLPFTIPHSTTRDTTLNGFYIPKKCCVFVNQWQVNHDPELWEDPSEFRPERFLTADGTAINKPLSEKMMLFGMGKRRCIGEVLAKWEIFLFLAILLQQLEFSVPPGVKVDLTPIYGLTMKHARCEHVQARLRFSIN

Cytochrome P450 2C9 = Cytochrome P450 2C9 (Homo sapiens, UniProt P11712); experiment: Inhibition of CYP2C9 (unknown origin); format: ADME

Sequence of Metabotropic glutamate receptor 1 (Rattus norvegicus) (P23385 19-1199 limits assumed): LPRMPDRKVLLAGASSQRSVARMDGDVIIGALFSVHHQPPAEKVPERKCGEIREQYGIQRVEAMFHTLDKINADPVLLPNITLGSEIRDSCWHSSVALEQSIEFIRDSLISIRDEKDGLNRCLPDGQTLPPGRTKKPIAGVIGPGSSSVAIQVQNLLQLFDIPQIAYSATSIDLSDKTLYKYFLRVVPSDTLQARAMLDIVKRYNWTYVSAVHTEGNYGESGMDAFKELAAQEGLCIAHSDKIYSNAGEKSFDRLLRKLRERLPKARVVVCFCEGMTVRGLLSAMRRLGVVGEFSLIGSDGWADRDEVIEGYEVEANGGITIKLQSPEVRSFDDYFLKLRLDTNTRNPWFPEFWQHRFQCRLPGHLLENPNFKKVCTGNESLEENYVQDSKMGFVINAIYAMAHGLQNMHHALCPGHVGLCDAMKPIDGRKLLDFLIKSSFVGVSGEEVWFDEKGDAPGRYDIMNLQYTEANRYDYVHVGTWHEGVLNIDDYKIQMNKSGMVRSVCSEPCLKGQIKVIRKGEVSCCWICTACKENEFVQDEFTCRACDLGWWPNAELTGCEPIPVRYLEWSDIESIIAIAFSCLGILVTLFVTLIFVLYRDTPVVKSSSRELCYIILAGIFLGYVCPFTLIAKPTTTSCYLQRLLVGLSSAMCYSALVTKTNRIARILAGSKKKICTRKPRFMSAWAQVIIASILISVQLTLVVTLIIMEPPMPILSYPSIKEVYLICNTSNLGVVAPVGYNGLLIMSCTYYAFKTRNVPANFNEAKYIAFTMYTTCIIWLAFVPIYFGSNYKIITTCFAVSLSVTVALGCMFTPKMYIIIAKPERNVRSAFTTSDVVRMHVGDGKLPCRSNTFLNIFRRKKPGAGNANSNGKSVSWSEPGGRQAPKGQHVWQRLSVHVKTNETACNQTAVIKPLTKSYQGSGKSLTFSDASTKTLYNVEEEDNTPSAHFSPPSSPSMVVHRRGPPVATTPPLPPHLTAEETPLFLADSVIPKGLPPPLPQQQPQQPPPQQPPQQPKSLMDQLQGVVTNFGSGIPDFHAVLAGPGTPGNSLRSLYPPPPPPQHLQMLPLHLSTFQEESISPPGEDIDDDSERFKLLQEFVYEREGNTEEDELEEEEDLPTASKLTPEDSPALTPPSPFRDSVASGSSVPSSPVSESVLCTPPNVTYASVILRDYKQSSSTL
Sequence of Cytochrome P450 2D6 (P10635 whole entry): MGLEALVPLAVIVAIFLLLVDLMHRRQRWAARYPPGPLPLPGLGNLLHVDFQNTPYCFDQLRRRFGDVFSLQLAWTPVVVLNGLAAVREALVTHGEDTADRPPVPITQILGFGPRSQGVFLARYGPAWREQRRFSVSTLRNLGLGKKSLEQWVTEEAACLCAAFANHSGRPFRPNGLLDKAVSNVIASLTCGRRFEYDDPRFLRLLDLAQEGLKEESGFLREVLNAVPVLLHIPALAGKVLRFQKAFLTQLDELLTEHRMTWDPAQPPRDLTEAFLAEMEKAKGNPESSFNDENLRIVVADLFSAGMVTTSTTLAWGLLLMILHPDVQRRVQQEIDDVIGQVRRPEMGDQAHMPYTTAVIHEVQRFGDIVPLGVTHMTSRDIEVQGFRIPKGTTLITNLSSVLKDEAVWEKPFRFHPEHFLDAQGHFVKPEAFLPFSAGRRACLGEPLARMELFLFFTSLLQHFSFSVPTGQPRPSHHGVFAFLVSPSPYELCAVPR
Sequence of Metabotropic glutamate receptor 1 (Rattus norvegicus, UniProt P23385) (P23385 whole entry): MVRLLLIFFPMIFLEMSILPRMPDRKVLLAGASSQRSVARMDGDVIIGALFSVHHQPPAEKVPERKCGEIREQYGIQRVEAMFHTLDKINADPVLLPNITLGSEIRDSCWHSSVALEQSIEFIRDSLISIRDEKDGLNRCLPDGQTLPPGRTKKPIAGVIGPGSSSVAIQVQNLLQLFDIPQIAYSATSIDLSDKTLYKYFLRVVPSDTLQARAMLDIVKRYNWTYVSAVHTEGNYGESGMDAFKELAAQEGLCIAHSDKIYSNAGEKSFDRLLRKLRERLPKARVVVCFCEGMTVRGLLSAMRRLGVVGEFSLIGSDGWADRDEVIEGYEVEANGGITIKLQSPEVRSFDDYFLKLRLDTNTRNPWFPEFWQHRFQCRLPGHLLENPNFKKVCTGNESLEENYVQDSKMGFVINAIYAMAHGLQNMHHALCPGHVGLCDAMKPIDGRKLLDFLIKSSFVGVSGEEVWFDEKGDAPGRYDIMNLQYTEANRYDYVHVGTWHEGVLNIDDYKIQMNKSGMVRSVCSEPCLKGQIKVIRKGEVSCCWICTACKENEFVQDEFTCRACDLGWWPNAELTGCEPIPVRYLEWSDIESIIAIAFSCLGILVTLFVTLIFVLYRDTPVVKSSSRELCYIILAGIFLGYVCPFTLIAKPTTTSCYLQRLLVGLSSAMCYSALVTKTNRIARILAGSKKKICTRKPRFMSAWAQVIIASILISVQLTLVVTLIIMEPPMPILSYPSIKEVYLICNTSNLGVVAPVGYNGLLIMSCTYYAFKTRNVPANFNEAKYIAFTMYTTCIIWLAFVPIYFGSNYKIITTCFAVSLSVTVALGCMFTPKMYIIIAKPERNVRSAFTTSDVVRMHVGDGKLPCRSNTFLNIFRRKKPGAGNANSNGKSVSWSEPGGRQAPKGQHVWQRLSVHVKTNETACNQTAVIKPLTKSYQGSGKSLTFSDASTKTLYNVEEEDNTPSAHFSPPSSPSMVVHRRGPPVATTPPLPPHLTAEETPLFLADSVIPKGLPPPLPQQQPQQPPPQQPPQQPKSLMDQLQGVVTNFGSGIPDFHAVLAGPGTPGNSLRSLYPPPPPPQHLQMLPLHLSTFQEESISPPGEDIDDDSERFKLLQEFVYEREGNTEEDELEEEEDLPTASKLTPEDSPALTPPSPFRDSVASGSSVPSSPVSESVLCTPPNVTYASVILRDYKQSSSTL
Sequence of Cytochrome P450 3A4 (P08684 whole entry): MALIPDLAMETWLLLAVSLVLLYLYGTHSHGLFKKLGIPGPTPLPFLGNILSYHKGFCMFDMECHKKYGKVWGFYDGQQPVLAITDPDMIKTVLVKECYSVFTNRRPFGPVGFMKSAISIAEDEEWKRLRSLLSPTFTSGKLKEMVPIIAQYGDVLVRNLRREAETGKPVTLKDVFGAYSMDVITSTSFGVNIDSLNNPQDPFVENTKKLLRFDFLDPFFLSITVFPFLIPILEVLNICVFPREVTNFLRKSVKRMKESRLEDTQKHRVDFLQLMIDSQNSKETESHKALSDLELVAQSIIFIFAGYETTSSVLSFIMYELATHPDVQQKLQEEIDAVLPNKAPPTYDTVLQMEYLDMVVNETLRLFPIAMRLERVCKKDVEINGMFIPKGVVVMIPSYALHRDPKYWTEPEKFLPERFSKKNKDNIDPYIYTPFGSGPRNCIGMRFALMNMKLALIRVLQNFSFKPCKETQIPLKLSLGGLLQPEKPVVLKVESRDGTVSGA

Structure (SMILES) | EC50 ([1]; read-out: EC50) [nM] | %max [2] [%] | EC50 ([5]; read-out: EC50) [nM] | %max [6] [%] | Fu (Brain [7]) | IC50 (Cytochrome P450 2D6) [nM] | IC50 (Cytochrome P450 3A4) [nM] | Cp (Plasma [8]) [ng/mL] | Drug uptake (Brain [9]) [ng/g] | Kp [10] | Efficacy [11] [%] | fold change (FC) [12] | other results
O=C(Nc1ccccn1)C1c2ccccc2Oc2ccccc21 | 1700 | 58 | – | – | – | – | – | – | – | – | – | – | –
O=C(Nc1nc(C(F)(F)F)co1)C1c2ccccc2Oc2ccccc21 | – | – | 276 | 109 | 0.001 | > 30000 | > 30000 | 276 | 81 | 0.29 | 109 | 6.9 | EC50 [3]: 246 nM; %max [4]: 96%
Cc1nsc(NC(=O)C2c3ccccc3Oc3ccccc32)n1 | 2700 | 101 | – | – | – | – | – | – | – | – | – | – | –
N#Cc1csc(NC(=O)C2c3ccccc3Oc3ccccc32)n1 | 710 | 110 | 1800 | 124 | 0.017 | 10300 | > 30000 | 80.2 | 83.6 | 1.19 | 115 | 5.4 | EC50 ([1]; read-out: pEC50 (converted)): 724 nM; CLint scaled [13]: 9.85 mL/min/kg; Fu [14]: 0.027; Fu (Plasma [15]): 0.005; IC50 (Cytochrome P450 1A2): 2900 nM; IC50 (Cytochrome P450 2C9): 2900 nM
O=C(Nc1cncs1)C1c2ccccc2Oc2ccccc21 | > 10000 | 54 | – | – | – | – | – | – | – | – | – | – | pEC50 [1]: < 5
O=C(Nc1nc2ccccc2s1)C1c2ccccc2Oc2ccccc21 | 4800 | 96 | – | – | – | – | – | – | – | – | – | – | –
Cc1nc(NC(=O)C2c3ccccc3Oc3ccccc32)sc1C | > 10000 | 68 | – | – | – | – | – | – | – | – | – | – | pEC50 [1]: < 5
CC(C)c1csc(NC(=O)C2c3ccccc3Oc3ccccc32)n1 | 900 | 89 | 2400 | 111 | 0.001 | 26500 | > 30000 | 77.8 | 78.7 | 1.01 | 115 | 4.6 | CLint scaled [13]: 15.5 mL/min/kg; Fu [14]: 0.001; Fu (Plasma [15]): 0.002; IC50 (Cytochrome P450 1A2): 19000 nM; IC50 (Cytochrome P450 2C9): 2100 nM
O=C(Nc1nccs1)C1c2ccccc2Oc2ccccc21 | 1400 | 75 | 3600 | 111 | – | – | – | – | – | – | – | – | EC50 ([5]; read-out: pEC50 (converted)): 3720 nM

From ChEMBL document CHEMBL3797099, “Re-exploration of the mGlu₁ PAM Ro 07-11401 scaffold: Discovery of analogs with improved CNS penetration despite steep SAR” (Bioorg Med Chem Lett, 2016)
